Experimental data published in a melting point compilation (Tetko et al.; mined from patent text by program, amines drawn as free bases though some values may be those of a salt).

| melting point | SMILES |
| --- | --- |
| 185 °C | Cc1nc(Br)c(Br)n1Cc1cc2c(cc1Cl)OCO2 |
| 156 to 157 °C | CCOC(=O)c1ccc(Cn2cnc3cnccc32)cc1 |
| 94 to 95 °C | COCC(C)Nc1nccc(Oc2ccc(NC(=O)c3cc(F)cc(N4CCCCC4)c3)c3ccccc23)n1 (centres undefined) |
| 211 to 213 °C | O=C(O)CCOc1cccc2cccnc12 |
| 70 to 80 °C | N#Cc1ccc(OCCNC(=O)C2Cc3ccccc3N2S(=O)(=O)c2ccc(-c3cccc(C(F)(F)F)c3)cc2)cc1 (centres undefined) |
| 163 to 164 °C | CCN(C)c1nc(-c2cc(OC)c(OC)c(OC)c2)nc2sc(C#N)c(C)c12 |
| 166 °C | CCCCc1ccc2nc(Cl)c(S(N)(=O)=O)n2n1 |
| 279 to 281 °C | O=C(O)Cc1c[nH]c2nc(Nc3ccccc3)nn2c1=O |
| 108 °C | Cc1ccc2oc(OCC(=O)N(c3ccccc3)C(C)C)nc2c1 |
| 117 to 120 °C | COc1ccc(C2=CCOCC2)cc1[N+](=O)[O-] |
| 99 to 100 °C | N#CCCCSc1nccc(N)n1 |
| 84 to 86 °C | ClCCCCCCOc1ccc(C2=C(c3ccccc3)CCCc3cc(OC4CCCCO4)ccc32)cc1 (centres undefined) |
| 118 to 120 °C | COc1ccc(C(=O)c2ccc(Sc3ccc(Cl)cc3)cc2)cc1OC |
| 137 to 139 °C | Clc1ccc(-c2c(Cc3nc4ccccc4o3)cnn2-c2ccccc2)cc1 |
| 186 to 187 °C | COc1ccc(S(=O)(=O)Oc2ccc3[nH]cc(C4CCN(C)CC4)c3c2)cc1 |
| 242 to 245 °C | COc1ccc(-c2nc(C(O)C(F)(F)F)[nH]c2-c2ccc(OC)cc2)cc1 (centres undefined) |
| 207 to 208 °C | COCC1CN(c2ccc(C3CCCCC3)c(O)c2)C(=O)O1 (racemic) |
| 173 to 174 °C | ON=Cc1cc(-c2ncc(C(F)(F)F)cc2Cl)ccc1Cl |
| 67 to 69 °C | CCOC(=O)c1cc(F)c(SC)nc1NC1CC1 |
| 129 to 130 °C | Cn1c(CC#N)ccc1C(=O)c1ccc(Cl)cc1Cl |
| 189 to 190 °C | CCOC(=O)C(=O)Nc1cc(C#N)cc(NC(=O)C(=O)OCC)c1 |
| 244 to 248 °C | C[C@H](NC(=O)c1ccc(N)cc1F)C(=O)O |
| 154 to 157 °C | CC(C(=O)C=Cc1ccccc1)C(=O)C=Cc1ccccc1 (centres undefined) |

| melting point | SMILES |
| --- | --- |
| 59 to 60 °C | CCO[C@@H](Cc1ccc2c(ccn2Cc2nc(-c3ccccc3OC)oc2C)c1)C(=O)O |
| 147 to 148 °C | CSC(=NC(=O)Cc1ccccc1)N(C)N=Cc1ccccc1 |
| 224 to 225 °C | CCc1nc(N)nc(N)c1-c1ccc(Cl)c(N=NN(CCO)C(C)(C)C)c1 |
| 177 to 178 °C | O=C(O)c1ccccc1-c1nc2cc(-c3ccccc3)ccc2s1 |
| 81 to 83 °C | CCOC(=O)C(Cc1ccc(OCc2ccccc2)cc1)OS(C)(=O)=O (centres undefined) |
| 182 °C | O=S(=O)(c1cn(-c2c(Cl)cc(C(F)(F)F)cc2Cl)c(Cl)n1)C(F)(F)F |
| 75 °C | N#Cc1ccc(C=O)c(-c2ccccc2)c1 |
| 132 °C | Cc1cccc(C2CCN(CCCCCC(=O)N3Cc4ccccc4C3)CC2)c1C#N |
| 190 °C | O=C(c1ccccc1)c1c(Cl)cc2n1CCC2C(=O)O (centres undefined) |
| 195 to 196 °C | CSc1cc2ccccc2cc1C=Cc1cc2ccccc2cc1SC |
| 164 °C | CCC(=O)OC1(C(=O)CCl)C(C)CC2C3CCC4CC(=O)CCC4(C)C3(Cl)C(Cl)CC21C (centres undefined) |
| 103 to 108 °C | CCCCn1nc(C(C)C)c(C(=O)O)c1Cc1ccc(-c2ccccc2-c2nnn[nH]2)cc1 |
| 169 to 170 °C | CN(C)C=Nc1c(Cl)cc(N=Cc2ccc(C#N)cc2)cc1Cl |
| > 250 °C | CCOCc1nc2c(N)nc3cc(-c4cccc(C(N)=O)c4)cnc3c2n1CC(C)(C)O |
| 164 to 167 °C | CCCn1c(=O)c(C(=O)OCC)c(O)c2cnc(-c3ccccc3)nc21 |
| 241 to 242 °C | CC(C)n1nc(-c2sc(NC(=O)n3c4ccccc4c4ccccc43)nc2-c2ccccc2)ccc1=O |
| 160 °C | Cn1ccc2c(NC(=O)c3ccccc3)cccc21 |
| 137 to 140 °C | c1ccc(Oc2ccc(C(c3ccccc3)(c3ccccn3)n3ccnc3)cc2)cc1 (centres undefined) |
| 216 to 217 °C | COc1ccccc1-n1c(-c2cc(-c3ccc(Cl)cc3)c(N3CCOCC3)s2)nc2ccccc2c1=O |
| 205 to 206 °C | CC(C)n1nc(-c2sc(NC(=O)c3ccc(Cl)cc3)nc2-c2ccccc2)ccc1=O |
| 84.1 °C | ClC(Cl)=CCOc1cc(Cl)c(OCCC2COC(c3ccc(Cl)cc3)O2)c(Cl)c1 (centres undefined) |
| 120 to 121 °C | O=C(O)C(=NOCc1ccccc1)c1csc2ccccc12 |
| 198 to 200 °C | CCc1nc2c(N)nc3ccccc3c2n1CCCCNS(C)(=O)=O |

| melting point | SMILES |
| --- | --- |
| 111 to 112 °C | CCO/C(=N/OC(C)=O)C1Cc2cc(C(=O)c3ccccc3F)c(O)c(Cl)c2O1 (centres undefined) |
| 135 to 136 °C | CCOC(=O)/C=C/c1cn(C)nc1OCc1ccc(OCc2nc(-c3ccco3)oc2C)c(OC)c1 |
| 48.6 °C | CCCc1cccc(-c2nc(C(C)C)n(C)n2)n1 |
| > 250 °C | COc1ccc(CNc2nc(N3CCC(C(=O)O)CC3)nc3sc(Cl)cc23)cc1Cl |
| 156 to 160 °C | Cc1cc(C)n(-c2cnc(CN)c(Nc3ccc(Cl)cc3)n2)n1 |
| 198 to 200 °C | COc1nc2ccccc2nc1NC(=O)N1CCN(c2ccc(C(C)=O)cc2)CC1 |
| 82 °C | O=c1oc2ccccc2c(OCCCN2CCOCC2)c1-c1ccccc1 |
| 151 to 154 °C | CNN1C(=O)CSC1=Cc1cc(C(C)(C)C)c(O)c(C(C)(C)C)c1 |
| 281 to 283 °C | CCn1cc(C(=O)O)c(=O)c2c(F)c(F)c(N3CCOCC3)c(F)c21 |
| 165 to 167 °C | CCOc1ccc2c(c1)CCc1c(cccc1C(=O)O)S2 |
| 97 °C | COc1ccc(CN2C(=O)C(C)(c3cc(CO)ccc3Cl)c3cc(Cl)ccc32)c(OC)c1 (centres undefined) |
| 110 to 113 °C | COc1cc(-c2ncsc2-c2ccc(C(F)(F)F)cc2)cc(OC)c1OC |
| 198 to 200 °C | COc1ccc(-n2c(=O)c(C(=O)O)nc3c(Cl)cccc32)cc1 |
| 225 to 227 °C | Cn1c(C(F)(F)F)ccc(-c2c(Cl)cc(Cl)c3oc(C(Br)(Br)Br)cc23)c1=O |
| 243 to 244 °C | CCc1nc2c(N)nc3ccccc3c2n1CCC1(O)CCOCC1 |
| 243 to 245 °C | CCN1c2ncccc2C(=O)Nc2c(C)cc(-n3ccnc3)nc21 |
| 179 to 180 °C | Cc1nnc(-c2ccc3occ(-c4ccc5c(c4)C(C)(C)CS5=O)c3c2)o1 (centres undefined) |
| 105 to 107 °C | COC(=O)c1cccn1Cc1ccccc1[N+](=O)[O-] |
| 83 to 85 °C | CC(C)c1cc(C(=O)Nc2ccc(OCC(=O)O)cc2)oc1C(C)C |
| 122 to 125 °C | CCOC(=O)c1ccc(C(Cc2ccc(F)cc2)C(=O)Nc2nc3ccccc3o2)cc1 (centres undefined) |
| 167 to 168 °C | CON=C1CCC(N(C)C(=O)c2ccc3nonc3c2)CC1 (centres undefined) |
| 117 to 119 °C | O=C(Nc1cccnc1NCc1ccc(Cl)cc1)c1ccccc1Cl |
| 74 to 75 °C | COC(=O)CC(=O)NC(C)(C)CC(C)(C)C |

| melting point | SMILES |
| --- | --- |
| 83 °C | COC(C)(CC(=O)Nc1cccc(OCc2ccccc2)c1)OC |
| 179 to 181 °C | CCOC(=O)c1cnn(-c2cc(Cl)cc(Cl)c2)c1S(C)(=O)=O |
| 188 °C | O=C(O)c1c([N+](=O)[O-])ccc2c1OCCO2 |
| 191 to 194 °C | NC(CC1c2ccccc2Oc2ccccc21)(C(=O)O)c1ccc(C(=O)O)c(O)c1 (centres undefined) |
| 152 °C | CC(C)N(C(=O)C(Cc1ccc(C=O)cc1)NC(=O)OC(C)(C)C)C(C)C (centres undefined) |
| 123 to 126 °C | Cc1cc(C)c(N)nn1 |
| 131 to 132 °C | CCOC(=O)c1ccc(C(C(N)=O)C(C)c2cc(OC)ccc2N2CCCCC2)cc1 (centres undefined) |
| 75 to 77 °C | CC(C)(C)OC(=O)NCC(Cl)c1ccco1 (centres undefined) |
| 123 °C | CCNC(=O)C(c1ccccc1)N1CCN(c2ccc(NC(=O)c3ccccc3-c3ccc(C(F)(F)F)cc3)cc2)CC1 (centres undefined) |
| 112 to 116 °C | CC(=O)c1cc(Cl)sc1S(=O)(=O)Nc1ccc(CCO)cc1 |
| 274 °C | CNCc1cc(OC)c(-c2ccc(C[C@H](NC(=O)c3c(Cl)cccc3Cl)C(=O)O)cc2)c(OC)c1 |
| 217 °C | OC12CC3CC(O)(C1)CC(O)(C3)C2 |
| 185 to 186 °C | CN(C)C1CCN(C(=O)c2ccc(-c3[nH]nc4c3C(=O)c3c(NC(=O)NN5CCOCC5)cccc3-4)s2)CC1 |
| 135 to 140 °C | O=CCCC12CC(c3ccccc31)c1ccccc12 |
| 140 to 143 °C | CC(=NO)C(=O)c1ccc(NS(C)(=O)=O)c(Sc2ccc(F)cc2F)c1 |
| 183 to 186 °C | CCOC(=O)CN1C(=O)C(NC(=O)c2ccc3ccccc3c2)C(c2ccc(OC)cc2)Sc2ccccc21 (centres undefined) |
| 135 to 138 °C | O=C1c2ccccc2C(=O)N1CCc1ccc(CCC2CCCCC2)cc1 |
| 341 to 343 °C | O=S(=O)(O)CCCNC1CCCCCC1 |
| 130 to 133 °C | COc1cccc(Sc2c3c(=O)n(C)c(=O)n(CC(C)C)c3cn2Cc2cccc3ccccc23)c1 |
| 148 to 149 °C | CCCCNS(=O)(=O)CCCCn1c(COCC)nc2c(N)nc3ccccc3c21 |
| 104 to 107 °C | Cc1nn(-c2cccnc2)cc1NC1CC1 |
| 165 to 166 °C | Clc1cc(Nc2ccc(N3CCOCC3)cc2)ncn1 |
| 176 to 177 °C | CC(C)(C)c1ccc(CCC=O)cc1NC(=O)CC1c2ccccc2Oc2ccccc21 |

| SMILES | melting point |
| --- | --- |
| COc1cccc2c1C(CN1CC=C(c3c[nH]c4cc(Cl)ccc34)CC1)CC2 (centres undefined) | 177 to 178 °C |
| CN1C(=O)C(F)N=C(c2ccccc2Cl)c2cc(Cl)ccc21 (centres undefined) | 204 to 205 °C |
| CCCCCC(C)C(C)c1cc(O)c2c(c1)OC(C)(C)C1=C2CCC1 (centres undefined) | 154 to 156 °C |
| O=C1NCN(c2ccccc2)C12CCN(CC(O)COc1ccc(F)cc1)CC2 (centres undefined) | 152 to 154 °C |
| N#Cc1ccc(N2CCN(Cc3ccccc3)CC2)cc1 | 104 to 105 °C |
| O=[N+]([O-])c1ccnc(N2CCNCC2)c1 | 92 to 93 °C |
| CCOC(=O)C1N=C(c2ccccc2)c2cc(Cl)ccc2NC1=O (centres undefined) | 244 °C |
